Results as given in patent publication US9550763B2, “Heterocyclic ring and carbocyclic derivative” (Shionogi & Co., Ltd., priority 2012, dated 2017).
pIC50: −log10 of the molar value.

target: human P2X3 receptor (Homo sapiens (Human), UniProt P56373); assay: Evaluation of human P2X3 receptor inhibitory activity (Test Example 1-1, FDSS 3000, 96-well, 50 nM ATP); assay type: cell-based; details: human P2X3 receptor in C6BU-1 cells; Test Example 1-1 (compounds I-001 to I-300)
Protocol: Stably expressing cell line (C6BU-1 cell transfected with human P2X3 receptor gene (GenBank accession number Y07683) was used. The cells were seeded in a 96-well microtiter plate at a concentration of 8000 cells/well and cultured in the medium (7.0% fetal bovine serum, 7.0% horse serum, 1% antibiotic and antifungal in DMEM) for one day at 37° C. under 5% carbon dioxide atmosphere. The medium was replaced with 4 μM Fluo-3-AM solution (20 mM HEPES, 137 mM NaCl, 5.27 mM KCl, 0.9 mM MgCl2, 1.26 mM CaCl2, 5.6 mM D-glucose, 2.5 mM probenecid, 1% BSA, and 0.08% Pluronic F-127, pH 7.5) and incubated at 37° C. under 5% dioxide carbon atmosphere for one hour. The plate was washed with washing buffer (20 mM HEPES, 137 mM NaCl, 5.27 mM KCl, 0.9 mM MgCl2, 1.26 mM CaCl2, 5.6 mM D-glucose, 2.5 mM probenecid, pH7.5), and each well was added with 40 μL of this buffer. The plate was placed in High-Throughput Screening System. FDSS 3000 (Hamamatsu Photonics K.K.). Measurement of fluorescence intensity by FDSS 3000 was started, and 40 μL of DMSO solutions containing different concentrations of the test compound as prepared by dilution with dilution buffer (20 mM HEPES, 137 mM NaCl, 5.27 mM KCl, 0.9 mM MgCl2, 1.26 mM CaCl2, 5.68 mM D-glucose, 2.5 mM probenecid, 0.1% Pluronic F-127, pH7.5) were dispensed to each well through the built-in automatic dispenser. Five minutes after, 50 nM ATP solution (50 μL) prepared by dilution with the dilution buffer was dispensed through the built-in automatic dispenser, and the measurement of fluorescence intensity was continued for 4 min. For each well, the specific maximum fluorescence intensity was calculated as the ratio of the maximum fluorescence intensity after addition of the ATP solution to the fluorescence intensity at the starting of the measurement. The 50% inhibitory concentration (IC50) was calculated under the assumption that the specific maximum fluorescence intensity without test compound is 0% inhibition and that the specific maximum fluorescence intensity when the dilution buffer was added in place of ATP solution is 100% inhibition, to evaluate the inhibitory activity of the test compound. FDSS software (Hamamatsu Photonics K.K.) was used for calculation of the specific maximum fluorescence intensity. IC50 was calculated using Microsoft Excel (Microsoft Corporation) and XLfit (idbs Ltd.)
The data of the compounds I-001 to I-300 are the results by the method mentioned in Test Example 1-1, and the data of the compounds I-301 to I-483 are the results by the method mentioned in Test Example 1-2.

human P2X3 receptor, sequence (P56373 whole entry): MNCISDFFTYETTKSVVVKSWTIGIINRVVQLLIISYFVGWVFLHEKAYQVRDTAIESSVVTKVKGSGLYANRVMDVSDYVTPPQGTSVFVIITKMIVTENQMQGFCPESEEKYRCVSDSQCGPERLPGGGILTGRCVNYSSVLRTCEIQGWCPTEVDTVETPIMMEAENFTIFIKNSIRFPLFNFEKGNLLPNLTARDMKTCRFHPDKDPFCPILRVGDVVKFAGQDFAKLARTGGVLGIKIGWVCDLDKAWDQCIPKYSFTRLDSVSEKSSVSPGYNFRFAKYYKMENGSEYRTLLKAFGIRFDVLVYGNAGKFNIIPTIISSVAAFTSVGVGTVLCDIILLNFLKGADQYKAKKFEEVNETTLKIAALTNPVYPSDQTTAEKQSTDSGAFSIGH

Row | SMILES | pIC50
1 | CCC(=O)N(C)C1=CN/C(=N\c2ccc(Oc3cccc(C(=O)O)n3)cc2)N(Cc2ccc(Cl)cc2)C1 [Compound I-241] | 8.10
2 | CC(=O)Nc1cnc(Nc2ccc(Oc3cccc(F)n3)cc2)n(Cc2ccc(Cl)cc2)c1=O [Compound I-070] | 7.55
3 | O=C(NC1CCOCC1)c1cn(Cc2ccc(Cl)cc2)c(Nc2ccc(Oc3ccncc3)cc2)nc1=O [Compound I-199] | 8.10
4 | O=C(Nc1c[nH]/c(=N\c2ccc(Oc3ccon3)cc2)n(Cc2ccc(Cl)cc2)c1=O)C1CNC1 [Compound I-181] | 6.88
5 | O=C(Nc1c[nH]/c(=N\c2ccc(Oc3ccon3)cc2)n(Cc2ccc(Cl)cc2)c1=O)C1COC1 [Compound I-184] | 7.85
6 | O=C(Nc1c[nH]/c(=N\c2ccc(Oc3ccon3)cc2)n(Cc2ccc(Cl)cc2)c1=O)c1ccoc1 [Compound I-267] | 7.35
7 | NC(=O)c1c[nH]/c(=N\c2ccc(Oc3ccc(F)cn3)c(F)c2)n(Cc2ccc(Cl)cc2)c1=O [Compound I-208] | 7.51
8 | O=C(NC1CCOCC1)c1cn(Cc2ccc(F)cc2)c(Nc2ccc(Oc3cccc(F)n3)cc2)nc1=O [Compound I-281] | 7.39
9 | CCc1c[nH]/c(=N\c2ccc(Oc3cncc(C(=O)O)c3)cc2)n(Cc2ccc(Cl)cc2)c1=O [Compound I-170] | 7.27
10 | CCOC(=O)c1cnc(Nc2ccc(Oc3cccc(C(=O)OC)n3)cc2)n(Cc2ccc(Cl)cc2)c1=O [Compound I-051] | 7.57
11 | CCC(=O)Nc1c[nH]/c(=N\c2ccc(Oc3ccc(CO)nn3)cc2)n(Cc2ccc(Cl)cc2)c1=O [Compound I-089] | 7.77
12 | CN(C)C(=O)c1c[nH]/c(=N\c2ccc(Oc3cccc(C(=O)O)n3)cc2)n(Cc2ccc(Cl)cc2)c1=O [Compound I-222] | 7.33
13 | CCC(=O)Nc1c[nH]/c(=N\c2ccc(Oc3cccc(F)n3)cc2)n(Cc2ccc(Cl)cc2)c1=O [Compound I-090] | 7.96
14 | COC(=O)[C@@H](C)Cn1c(=O)cc(Nc2ccc(Oc3ccon3)cc2)n(Cc2ccc(Cl)cc2)c1=O [Compound I-114] | 7.77
15 | CC(=O)N(C)c1c[nH]/c(=N\c2ccc(Oc3cccc(C#N)n3)cc2)n(Cc2ccc(Cl)cc2)c1=O [Compound I-197] | 7.35
16 | CCn1c(=O)cc(Nc2ccc(Oc3ncc(C(=O)O)s3)cc2)n(Cc2ccc(Cl)cc2)c1=O [Compound I-013] | 8.70
17 | COC(=O)[C@@H](C)Cn1c(=O)cc(Nc2ccc(Oc3ncccc3F)cc2)n(Cc2ccc(Cl)cc2)c1=O [Compound I-115] | 8.05
18 | CCn1c(=O)cc(Nc2ccc(Oc3cccc(C(=O)O)c3)cc2)n(Cc2ccc(Cl)cc2)c1=O [Compound I-023, 1-(4-chlorobenzyl)-3-ethyl-6-[4-(3-hydroxycarbonylphenoxy)phenylamino]pyrimidin-2,4(1H,3H)-dione] | 8.52
19 | O=c1c(-c2ccncc2)c[nH]/c(=N\c2ccc(Oc3ccon3)cc2)n1Cc1ccc(Cl)cc1 [Compound I-274] | 6.45

Row | SMILES | pIC50
20 | CCn1c(=O)cc(Nc2cnc(Oc3cccc(C(N)=O)c3)cn2)n(Cc2ccc(Cl)cc2)c1=O [Compound I-076] | 6.36
21 | CCC(=O)Nc1c[nH]/c(=N\c2ccc(Oc3ccc(C(N)=O)nc3)cc2)n(Cc2ccc(Cl)cc2)c1=O [Compound I-095] | 8.10
22 | CCC(=O)Nc1c[nH]/c(=N\c2ccc(Oc3ccc(CO)nc3)cc2)n(Cc2ccc(Cl)cc2)c1=O [Compound I-118] | 7.77
23 | O=C(Nc1c[nH]/c(=N\c2ccc(Oc3ccon3)cc2)n(Cc2ccc(Cl)cc2)c1=O)c1ccon1 [Compound I-226] | 6.68
24 | Cc1cc(/N=c2\[nH]cc(C(N)=O)c(=O)n2Cc2ccc(Cl)cc2)ccc1Oc1cccc(F)n1 [Compound I-139] | 7.80
25 | CCC(=O)Nc1c[nH]/c(=N\c2ccc(Oc3ccnc(C(=O)OC)c3)cc2)n(Cc2ccc(Cl)cc2)c1=O [Compound I-098] | 7.96
26 | NC(=O)c1cc(Oc2ccc(Nc3nc(=O)c(C(=O)NC4CCOCC4)cn3Cc3ccc(Cl)cc3)cc2)ccn1 [Compound I-240] | 8.22
27 | CCOC(=O)c1c[nH]/c(=N\c2ccc(Oc3cccc(F)n3)c(C)c2)n(Cc2ccc(Cl)cc2)c1=O [Compound I-112] | 7.62
28 | CCCn1c(=O)cc(Nc2ccc(Oc3cccc(C#N)n3)cn2)n(Cc2ccc(Cl)cc2)c1=O [Compound I-171] | 7.68
29 | CCn1c(=O)cc(Nc2ccc(Oc3ncc(C(N)=O)s3)cc2)n(Cc2ccc(Cl)cc2)c1=O [Compound I-039] | > 8.40
30 | CCn1c(=O)cc(Nc2ccc(Oc3cccc(C(N)=O)n3)cc2)n(Cc2ccc(Cl)cc2)c1=O [Compound I-025] | 8.22
31 | CCCn1c(=O)cc(Nc2ccc(Oc3cccc(C(=O)O)c3)c(C)n2)n(Cc2ccc(Cl)cc2)c1=O [Compound I-259] | 7.80
32 | Cc1cc(Nc2nc(=O)c(C(=O)NC3CCOCC3)cn2Cc2ccc(Cl)cc2)ccc1Oc1cccc(F)n1 [Compound I-157] | 7.96
33 | CCc1c[nH]/c(=N\c2ccc(Oc3ncc(C(=O)O)s3)cc2)n(Cc2ccc(Cl)cc2)c1=O [Compound I-087] | 7.54
34 | N#Cc1cnc(Oc2ccc(/N=c3\[nH]cc(NC(=O)C4CCOCC4)c(=O)n3Cc3ccc(Cl)cc3)cc2)cn1 [Compound I-143] | 8.70
35 | NC(=O)c1cccc(Oc2ccc(/N=c3\[nH]cc(C(N)=O)c(=O)n3Cc3ccc(Cl)cc3)cc2)n1 [Compound I-178] | 7.85
36 | CCC(=O)Nc1c[nH]/c(=N\c2ccc(Oc3ccnc(C(=O)O)c3)cc2)n(Cc2ccc(Cl)cn2)c1=O [Compound I-289] | 7.62
37 | CCc1oc2ccc(/N=c3\[nH]cc(NC(=O)C4CCOCC4)c(=O)n3Cc3ccc(Cl)cn3)cc2c1C [Compound I-262] | 7.01
38 | CN(C)C(=O)c1c[nH]/c(=N\c2ccc(Oc3cccc(C#N)n3)cc2)n(Cc2ccc(Cl)cc2)c1=O [Compound I-209] | 6.99

Row | SMILES | pIC50
39 | CCC(=O)Nc1c[nH]/c(=N\c2ccc(Oc3cnc(C(N)=O)cn3)cc2)n(Cc2ccc(Cl)cc2)c1=O [Compound I-097] | 8.30
40 | CCOC(=O)c1cnc(Nc2ccc(Oc3ncc(C(=O)O)s3)cc2)n(Cc2ccc(Cl)cc2)c1=O [Compound I-059] | 8.22
41 | Cc1noc(-c2c[nH]/c(=N\c3ccc(Oc4ccc(F)cn4)cc3)n(Cc3ccc(Cl)cc3)c2=O)n1 [Compound I-151] | 7.51
42 | COC(=O)[C@@H](C)Cn1c(=O)cc(Nc2ccc(Oc3cccc(F)n3)cc2)n(Cc2ccc(Cl)cc2)c1=O [Compound I-116] | 8.22
43 | CCn1c(=O)cc(Nc2ccc(Oc3ccc(C(=O)O)cc3)cn2)n(Cc2ccc(Cl)cc2)c1=O [Compound I-054] | 7.37
44 | CCC(=O)N(CC)c1c[nH]/c(=N\c2ccc(Oc3cccc(C#N)n3)cc2)n(Cc2ccc(Cl)cc2)c1=O [Compound I-189] | 7.92
45 | O=C(O)c1c[nH]/c(=N\c2ccc(Oc3ccc(F)cn3)cc2)n(Cc2ccc(Cl)cc2)c1=O [Compound I-141] | 6.33
46 | Cc1cncc(Oc2ccc(Nc3ncc(NC(=O)C4CCOCC4)c(=O)n3Cc3ccc(Cl)cc3)cc2)n1 [Compound I-136] | 8.70
47 | CCc1oc2ccc(/N=c3\[nH]cc(CO)c(=O)n3Cc3ccc(Cl)cc3)cc2c1C [Compound I-046] | 6.56
48 | Cc1cc(/N=c2\[nH]cc(NC(=O)C3CCOCC3)c(=O)n2Cc2ccc(Cl)cc2)ccc1Oc1ccon1 [Compound I-248] | 8.22
49 | CCc1oc2ccc(Nc3ncc(NC(C)=O)c(=O)n3Cc3ccc(Cl)cc3)cc2c1C [Compound I-071] | 6.77
50 | CCc1oc2ccc(Nc3nc(=O)c(C(=O)NC(C)C)cn3Cc3ccc(Cl)cc3)cc2c1C [Compound I-022] | 7.03
51 | O=C(NC1CCOCC1)c1cn(Cc2ccc(Cl)cc2)c(Nc2ccc(Oc3nccs3)cc2)nc1=O [Compound I-161] | 7.66
52 | CCC(=O)Nc1c[nH]/c(=N\c2ccc(Oc3cccc(C(=O)O)n3)cc2)n(Cc2ccc(Cl)cc2)c1=O [Compound I-104] | 8.52
53 | O=C(Nc1c[nH]/c(=N\c2ccc(Oc3ccon3)cc2)n(Cc2ccc(Cl)cc2)c1=O)c1ccccc1 [Compound I-253] | 7.21
54 | COC(=O)[C@@H](C)Cn1c(=O)cc(Nc2ccc(Oc3cccc(C#N)n3)c(F)c2)n(Cc2ccc(Cl)cc2)c1=O [Compound I-122] | 8.52
55 | O=C(Nc1c[nH]/c(=N\c2ccc(Oc3ccc(F)cn3)cc2)n(Cc2ccc(Cl)cc2)c1=O)C1COC1 [Compound I-214] | 7.89
56 | CCn1c(=O)cc(Nc2ccc(Oc3ccc(C(=O)OC)cc3)nc2)n(Cc2ccc(Cl)cc2)c1=O [Compound I-061] | 7.19
